# Measurements from publication PMC3475717, “A Spiroligomer α-Helix Mimic That Binds HDM2, Penetrates Human Cells and Stabilizes HDM2 in Cell Culture” (PLoS ONE, 2012).
# Test system: HepG2 cells
# Experiment: cell penetration, fluorescence and confocal microscopy; active vs. passive transport
# Format: cell-based, human
# Protocol: Cell Culture and Treatment. HepG2 (expressing wild-type p53) and Huh7 (expressing mutant p53) cell lines were purchased from the American Type Culture Collection (ATCC) and cultured as monolayers in Dulbecco’s modified Eagle’s medium (DMEM) (Invitrogen) supplemented with 100 mM nonessential amino acid solution, 100 mM sodium pyruvate, 100 U/mL penicillin, 100 μg/mL streptomycin, and 10% heat inactivated fetal bovine serum (FBS) (all from Hyclone).
# Cells were maintained at 37° C and 5% CO2 and were treated with media that contained 0.5%
# FBS. Nutlin-3 (Sigma) was dissolved in 0.01% DMSO (Sigma). This concentration of DMSO did not affect the cell phenotype. Both nutlin-3 and spiroligomers were added into the medium for final concentrations of 2 µM, 5 µM, 10 µM and 20 µM for 24 hours. For the western blot experiments detailed below, the time length for incubation with bis-peptide was 17 hours.
# Fluorescence and Confocal Microscopy. Fluorescence and confocal microscopy were applied to live and fixed cells. Cells were grown on glass chambers and fixed with ice-cold 95:5 ethanol/acetic acid for 10 minutes at -20 °C. Sections were washed with PBS and mounted in Vectashield aqueous mounting medium with DAPI (Vector laboratories). Fluorescent specimens were analyzed using an ECLIPSE Ti microscope (Nikon), lenses with hardened […]
# (1 picture or pasted object on this page, not shown here) […]
# filters (Nikon), and a Nikon DS-Fi1 camera, which was operated by NIS Elements computer software (Nikon). Confocal microscopy was performed with a Leica SP-1 microscope, with illumination at 488 nm and spectral detection. […]
# Mathematical model described8 and MxPro software (Stratagene) were used to process PCR data. End-point PCR reactions were assayed with PCR Master Mix (Promega). Samples were amplified in 34 cycles; each cycle consisted of 30 sec of denaturation at 95 °C, 30 sec of annealing at 60 °C, and 30 sec of elongation at 72 °C. After 34 cycles, samples were subjected to final elongation for 5 minutes at 72 °C. […]
# fluorescence in the images.
smiles,measurement,setting,value
CC(C)CN1C(=O)[C@@H]2C[C@@]3(CN2C(=O)[C@@]12C[C@H]1C(=O)N(Cc4ccc(Cl)c(Cl)c4)[C@]4(C[C@@H]5C(=O)N[C@@H](CCc6ccccc6)C(=O)N5C4)C(=O)N1C2)NC(=O)[C@@H](CCCCNC(=S)Nc1ccc2c(c1)C(=O)OC21c2ccc(O)cc2Oc2cc(O)ccc21)NC3=O [Compound 1],mechanism of cell penetration,,passive diffusion
same,uptake of fluorescence with active transport inhibited,"HepG2, 37°C, 60 min pre-treatment with 10 mM sodium azide and 50 mM deoxy-D-glucose, 5 µM, 3.75 hours",indistinguishable from control cells treated with 1 at 37 °C
